The subject of the experiment is BDF1 mice, B16 melanoma ip, median survival T/C. Put plainly: NCI In Vivo Anticancer Drug Screen. Data for tumor model B16 Melanoma (intraperitoneal) in B6D2F1 (BDF1) mice. The conditions noted are these: endpoint: median survival time, higher = longer survival. Put shortly: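 Read-out: survival or tumor size, given as treated/control ratio. Controls received vehicle only; animals bore transplantable tumors.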

Where [1] appears, read: dose: 12.5 mg/kg/injection, schedule: Q01DX009 (ip), vehicle: saline with Tween-80.
Where [2] appears, read: dose: 25.0 mg/kg/injection, schedule: Q01DX009 (ip), vehicle: saline with Tween-80.
The mark [3] stands for this setting: dose: 50.0 mg/kg/injection, schedule: Q01DX009 (ip), vehicle: saline with Tween-80.
The mark [4] stands for this setting: dose: 100.0 mg/kg/injection, schedule: Q01DX009 (ip), vehicle: Klucel (hydroxypropylcellulose) (HPC).
Setting [5] is: dose: 200.0 mg/kg/injection, schedule: Q01DX009 (ip), vehicle: Klucel (hydroxypropylcellulose) (HPC).
Setting [6] is: dose: 400.0 mg/kg/injection, schedule: Q01DX009 (ip), vehicle: Klucel (hydroxypropylcellulose) (HPC).
Setting [7] is: dose: 50.0 mg/kg/injection, schedule: Q01DX009 (ip), vehicle: saline.
[8] abbreviates: dose: 100.0 mg/kg/injection, schedule: Q01DX009 (ip), vehicle: saline.
Where [9] appears, read: dose: 200.0 mg/kg/injection, schedule: Q01DX009 (ip), vehicle: saline.
Where [10] appears, read: dose: 25.0 mg/kg/injection, schedule: Q01DX009 (ip), vehicle: saline.
Where [11] appears, read: dose: 25.0 mg/kg/injection, schedule: Q01DX009 (ip), vehicle: Klucel (hydroxypropylcellulose) (HPC).
Setting [12] is: dose: 50.0 mg/kg/injection, schedule: Q01DX009 (ip), vehicle: Klucel (hydroxypropylcellulose) (HPC).
Where [13] appears, read: dose: 100.0 mg/kg/injection, schedule: Q01DX009 (ip), vehicle: saline with Tween-80.
The mark [14] stands for this setting: dose: 200.0 mg/kg/injection, schedule: Q01DX009 (ip), vehicle: saline with Tween-80.
Where [15] appears, read: dose: 12.5 mg/kg/injection, schedule: Q01DX009 (ip), vehicle: saline.

Several values for one entry are separate records, joined by “and”; a condition that tells them apart may be missing. Equal values may be shown once. Inconclusive results and toxic doses are left out. Numbered stars: 1 amine (or outer) side, 2 acyl side, 3 side chain; on linkers, the order of the positions; unused ones are H or OH. Bridge positions count the residues as written; N and C are the ends. Square brackets hold non-standard residues; d marks the D form. Peptide text beside a SMILES is read from it. I, II: the chains in the order shown. * marks the point of attachment. Actinocin(1to9) = Cc1c2oc3c(C)ccc(C(=O)[*:2])c3nc-2c(C(=O)[*:1])c(N)c1=O; Trt = c1ccc(C(c2ccccc2)(c2ccccc2)*)cc1; NMeV = CN[CH](C(=O)O)C(C)C; Cbz = O=C(OCc1ccccc1)*; Bn = c1ccc(C*)cc1; βAla = NCCC(=O)O; Sar = CNCC(=O)O

Turning to `CCC(C)C1NC(=O)C(NC(=O)c2c3nc4c(C(=O)NC5C(=O)NC(C(C)C)C(=O)N6CCCC6C(=O)N(C)CC(=O)N(C)C(C(C)C)C(=O)OC5C)ccc(C)c4oc-3c(C)c(=O)c2N)C(C)OC(=O)C(C(C)C)N(C)C(=O)CN(C)C(=O)C2CCCN2C1=O` (centres undefined) (I: TIP[Sar][NMeV] / II: TVP[Sar][NMeV]; ester I:1-I:C, II:1-II:C; linker I:N-II:N via Actinocin(1to9); configuration not given here), the T/C (dose: 0.2 mg/kg/injection, schedule: Q01DX001 (ip), vehicle: water) is 116 % of control; the T/C (dose: 12.5 micrograms/kg/injection, schedule: Q01DX009 (ip), vehicle: water) was 117 % of control; the T/C (dose: 25.0 micrograms/kg/injection, schedule: Q01DX009 (ip), vehicle: water) was 116 % of control; the T/C (dose: 75.0 micrograms/kg/injection, schedule: Q04DX003 (ip), vehicle: water) is 119 % of control.
`c1ccc([As+](c2ccccc2)(c2ccccc2)c2ccccc2)cc1`: the T/C by setting is: (dose: 1.87 mg/kg/injection, schedule: Q01DX009 (ip), vehicle: Klucel (hydroxypropylcellulose) (HPC)) 122 % of control; (dose: 3.75 mg/kg/injection, schedule: Q01DX009 (ip), vehicle: Klucel (hydroxypropylcellulose) (HPC)) 110 % of control.
For the compound `CC1(C)N=C(N)N=C(N)N1c1ccc(OCCNS(=O)(=O)c2cccc(S(=O)(=O)F)c2)c(Cl)c1`, the T/C is, setting by setting: under setting [1], 107 % of control; under setting [2], 113 % of control; under setting [3], 120 % of control.
Regarding `CCCCCCCCCC(O)CC` (centres undefined), the T/C was 98 % of control under setting [4], 96 % of control under setting [5] and 100 % of control under setting [6].
For `[N-]=[N+]=CC(=O)NCC(=O)NN`, the T/C runs as follows: (dose: 50.0 mg/kg/injection, schedule: Q01DX009 (ip), vehicle: other) 111 % of control; under setting [7], 110 % of control; (dose: 100.0 mg/kg/injection, schedule: Q01DX009 (ip), vehicle: other) 106 % of control; under setting [8], 113 % of control; (dose: 200.0 mg/kg/injection, schedule: Q01DX009 (ip), vehicle: other) 120 % of control; under setting [9], 123 % of control. Further, the T/C was 166 % of control (dose: 300.0 mg/kg/injection, schedule: Q01DX009 (ip), vehicle: other); 150 % of control (dose: 400.0 mg/kg/injection, schedule: Q01DX009 (ip), vehicle: saline); 86 % of control (dose: 500.0 mg/kg/injection, schedule: Q01DX009 (ip), vehicle: other); 156 % of control (dose: 600.0 mg/kg/injection, schedule: Q02DX005 (ip), vehicle: other).
As for `Oc1cc(Br)ccc1C=Nc1ccc(N2CCCCC2)cc1`, the T/C was 106 % of control under setting [4], 93 % of control under setting [5] and 93 % of control under setting [6].
Regarding `C1CC[N-]CC1.C1CC[N-]CC1.C1CC[N-]CC1.C1CC[N-]CC1.N#C[S-].N#C[S-].[Ni]`, the T/C is, setting by setting: (dose: 5.0 mg/kg/injection, schedule: Q01DX009 (ip), vehicle: saline with Tween-80) 92 % of control; (dose: 10.0 mg/kg/injection, schedule: Q01DX009 (ip), vehicle: saline with Tween-80) 104 % of control.
Take `COc1ccc(N=O)c(O)c1`: the T/C (dose: 6.25 mg/kg/injection, schedule: Q01DX009 (ip), vehicle: saline with Tween-80) is 97 % of control; the T/C under setting [1] was 97 % of control; the T/C under setting [2] is 90 % of control; the T/C under setting [10] was 197 % of control; the T/C under setting [3] is 109 % of control; the T/C under setting [7] is 95 % of control. Under setting [8], the T/C is 90 % of control.
`CN(C)CCCN1c2ccccc2Sc2cnccc21`: the T/C by setting is: under setting [10], 115 % of control; under setting [7], 93 % of control; under setting [8], 115 % of control.
Regarding `COC(=O)/C=C/c1ccc(OC)cc1`, the T/C by setting is: under setting [4], 97 % of control; under setting [5], 97 % of control; (dose: 200.0 mg/kg/injection, schedule: Q04DX003 (ip), vehicle: Klucel (hydroxypropylcellulose) (HPC)) 86 % of control; under setting [6], 97 % of control; (dose: 400.0 mg/kg/injection, schedule: Q04DX003 (ip), vehicle: Klucel (hydroxypropylcellulose) (HPC)) 100 % of control.
As for `C1CCC2C[N-]CCC2C1.C1CCC2C[N-]CCC2C1.C1CCC2C[N-]CCC2C1.C1CCC2C[N-]CCC2C1.[Cl][Rh][Cl]` (centres undefined), the T/C was 100 % of control (dose: 0.25 mg/kg/injection, schedule: Q01DX009 (ip), vehicle: saline); 104 % of control (dose: 0.5 mg/kg/injection, schedule: Q01DX009 (ip), vehicle: saline with Tween-80); 104 % of control (dose: 0.5 mg/kg/injection, schedule: Q01DX009 (ip), vehicle: saline); 95 % of control (dose: 1.0 mg/kg/injection, schedule: Q01DX009 (ip), vehicle: saline with Tween-80); 115 % of control (dose: 1.0 mg/kg/injection, schedule: Q01DX009 (ip), vehicle: saline); 92 % of control (dose: 2.0 mg/kg/injection, schedule: Q01DX009 (ip), vehicle: saline with Tween-80). Moreover, the T/C was 123 % of control (dose: 2.0 mg/kg/injection, schedule: Q01DX009 (ip), vehicle: saline); 86 % of control (dose: 4.0 mg/kg/injection, schedule: Q01DX009 (ip), vehicle: saline with Tween-80); 115 % of control (dose: 4.0 mg/kg/injection, schedule: Q01DX009 (ip), vehicle: saline); 110 % of control (dose: 8.0 mg/kg/injection, schedule: Q01DX009 (ip), vehicle: saline).
`Cc1cccc(Cl)c1NC(=O)Cn1cccc1`: the T/C is 108 % of control under setting [11], 108 % of control under setting [12] and 118 % of control under setting [4].
For `CCC(=O)Oc1[nH]c(C)c(C(C)=O)c1C`, the T/C by setting is: under setting [13], 102 % of control; under setting [14], 100 % of control; (dose: 400.0 mg/kg/injection, schedule: Q01DX009 (ip), vehicle: saline with Tween-80) 95 % of control.
In the case of `CC(C)CCC1(CCBr)C(=O)NC(=Nc2ccccc2)NC1=O` (centres undefined), the T/C under setting [2] is 86 % of control, the T/C under setting [3] is 106 % of control, the T/C under setting [13] is 96 % of control and the T/C under setting [14] was 96 % of control.
`Cc1ccc(C2NC(=O)c3ccccc3N2)s1` (centres undefined): the T/C is, setting by setting: under setting [12], 99 % of control; under setting [4], 102 % of control; under setting [5], 105 % of control; under setting [6], 96 % of control.
Regarding `CN(C)CCC=C1c2ccccc2CCc2ccccc21`, the T/C is, setting by setting: (dose: 3.12 mg/kg/injection, schedule: Q01DX009 (ip), vehicle: saline) 109 % of control; (dose: 6.25 mg/kg/injection, schedule: Q01DX009 (ip), vehicle: saline) 117 % of control; under setting [15], 100 % of control; under setting [10], 102 % of control.
As for `CCCCCCC#CC(=O)OC`, the T/C under setting [1] was 110 % of control; the T/C under setting [2] was 93 % of control; the T/C under setting [3] was 97 % of control and 100 % of control.
Regarding `COC(=O)C(CSC(c1ccccc1)(c1ccccc1)c1ccccc1)NC(=O)C(CSCc1ccccc1)NC(=O)CCNC(=O)OCc1ccccc1` (centres undefined) ({Cbz-βAla}-Cys(Bn)-Cys(Trt)-OMe; configuration not given here), the T/C is, setting by setting: (dose: 12.5 mg/kg/injection, schedule: Q01DX009 (ip), vehicle: Klucel (hydroxypropylcellulose) (HPC)) 86 % of control; under setting [11], 87 % of control and 92 % of control; under setting [12], 89 % of control and 120 % of control; under setting [6], 167 % of control.
Turning to `CC(C)C(NC(=O)c1ccccc1)C(=O)O` (centres undefined), the T/C is 111 % of control (dose: 25.0 mg/kg/injection, schedule: Q04DX003 (ip), vehicle: Klucel (hydroxypropylcellulose) (HPC)); 95 % of control under setting [3]; 100 % of control (dose: 50.0 mg/kg/injection, schedule: Q04DX003 (ip), vehicle: Klucel (hydroxypropylcellulose) (HPC)); 103 % of control under setting [4]; 93 % of control under setting [13]; 86 % of control (dose: 100.0 mg/kg/injection, schedule: Q04DX003 (ip), vehicle: Klucel (hydroxypropylcellulose) (HPC)). Also, the T/C under setting [5] was 96 % of control.
Regarding `COC(=O)CC(N)C(=O)O` (centres undefined), the T/C was 101 % of control under setting [15]; 103 % of control under setting [10]; 113 % of control under setting [7]; 104 % of control under setting [8]; 89 % of control under setting [9].

These data come from PubChem BioAssay AID192 (DTP/NCI, 2004).
